Values joined by “and” are separate entries in the source; they are usually repeats but may differ in a detail not shown here. Equal values may be shown once.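 Briefly, cells in 96-well plates were exposed to five compound concentrations for 48 h, and endpoints were estimated by linear interpolation. The concentration for 50% growth inhibition is given as GI50. The concentration for full growth arrest is given as TGI.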

These results are taken from PubChem BioAssay (NCI).

Among the test systems are SW-620 colon; SF-539 CNS; OVCAR-5 ovarian; DU-145 prostate; RPMI-8226 leukemia; T-47D breast; NCI/ADR-RES ovarian; HT29 colon; SK-MEL-2 melanoma; HOP-62 NSCLC.
Experiment in all cases: growth of human tumour cells (NCI), 48 h

For the molecule `COC(=O)NC1C(C)OC(OC2C/C=C(/C)C3C=CC4C(OC5CC(OC6CC(O)C(OC7CC(O)C(OC)C(C)O7)C(C)O6)C(O)C(C)O5)C(C)CC(C)C4C3(C)/C(O)=C3\C(=O)OC4(CC(C)C(CO)=CC4/C=C\2C)C3=O)CC1(C)[N+](=O)[O-]` (configuration not stated), the TGI is 19.7 µM and 35.2 µM in the test on SW-620 colon; 24.9 µM and 37.7 µM in the test on SF-539 CNS; 30.7 µM and 33.7 µM in the test on OVCAR-5 ovarian; 27.5 µM with DU-145 prostate; 50 µM and 26.9 µM in the test with RPMI-8226 leukemia; 31.8 µM in the test with T-47D breast. For the same molecule, the TGI in the test with NCI/ADR-RES ovarian was more than 100 µM; in the test with HT29 colon, 15.9 µM and 35.9 µM; in the test with SK-MEL-2 melanoma, 17.4 µM and 29.6 µM; in the test with HOP-62 NSCLC it was 18.4 µM and 46.3 µM. The GI50 in the test on SF-539 CNS was 11.6 µM; in the test with OVCAR-5 ovarian, 13.4 µM; in the test on RPMI-8226 leukemia, 15.7 µM; in the test on NCI/ADR-RES ovarian, more than 50 µM; with HT29 colon, 8.34 µM; in the test with SK-MEL-2 melanoma it was 9.66 µM. The GI50 with HOP-62 NSCLC was 9.62 µM.

On to `Cn1c2ccccc2c(=S)c2ccccc21`, for which the TGI in the test on SW-620 colon, in the test with SF-539 CNS, with OVCAR-5 ovarian, with DU-145 prostate, in the test with RPMI-8226 leukemia and with T-47D breast was more than 100 µM each time. The TGI in the test on NCI/ADR-RES ovarian, in the test on HT29 colon, in the test on SK-MEL-2 melanoma and in the test on HOP-62 NSCLC was more than 100 µM throughout.

In the case of `COc1cccc(C2c3cc4c(cc3OC(C)(O)C2C)OCO4)c1O` (configuration not stated), the TGI in the test on SW-620 colon was more than 100 µM; with SF-539 CNS, 8.65 µM; in the test on OVCAR-5 ovarian, more than 100 µM; in the test on DU-145 prostate it was 53.9 µM; with RPMI-8226 leukemia it was more than 100 µM; in the test with T-47D breast it was 13.1 µM. For the same molecule, the TGI with NCI/ADR-RES ovarian was found to be 6.4 µM; in the test with HT29 colon, 17.4 µM; in the test on SK-MEL-2 melanoma, 65.3 µM; with HOP-62 NSCLC, 44.4 µM.

For `C1=Cc2ccccc2Nc2ccccc21`, the GI50 in the test with SW-620 colon, in the test on SF-539 CNS, in the test on OVCAR-5 ovarian, in the test on DU-145 prostate, with RPMI-8226 leukemia and in the test on T-47D breast was more than 100 µM in each case. The GI50 in the test with NCI/ADR-RES ovarian, in the test on HT29 colon, with SK-MEL-2 melanoma and in the test with HOP-62 NSCLC was more than 100 µM throughout. For the same molecule, the TGI with SW-620 colon, in the test on SF-539 CNS, with OVCAR-5 ovarian, in the test with DU-145 prostate, with RPMI-8226 leukemia and in the test with T-47D breast was more than 100 µM each time. In addition, the TGI in the test on NCI/ADR-RES ovarian, in the test on HT29 colon, in the test with SK-MEL-2 melanoma and with HOP-62 NSCLC was more than 100 µM each time.

Regarding `O=c1c2cccc(Cl)c2sc2c(NCCCNCCO)nc3ccccc3c12`, the GI50 with SW-620 colon is 1.41 µM; in the test with SF-539 CNS, 1.67 µM; in the test with OVCAR-5 ovarian, 2.8 µM; in the test on DU-145 prostate, 1.98 µM; in the test on RPMI-8226 leukemia, 2.1 µM; with T-47D breast, 2.2 µM. The GI50 is 2.98 µM with NCI/ADR-RES ovarian, 1.68 µM in the test with HT29 colon, 10.9 µM with SK-MEL-2 melanoma and 2.87 µM with HOP-62 NSCLC. In addition, the TGI in the test on SW-620 colon stood at 2.95 µM; in the test with SF-539 CNS, 3.32 µM; in the test on OVCAR-5 ovarian, 10.1 µM; in the test with DU-145 prostate, 4.85 µM; in the test with RPMI-8226 leukemia, 5.45 µM; in the test on T-47D breast, 23 µM. Also, the TGI in the test on NCI/ADR-RES ovarian is 12.1 µM; in the test with HT29 colon, 3.37 µM; in the test with SK-MEL-2 melanoma, 26.3 µM; in the test on HOP-62 NSCLC it was 17.1 µM.
